In US7922998B2, “Gastrin releasing peptide compounds” (Bracco Imaging S.p.A., priority 2003, dated 2011):
Entries after “also recorded” stand apart in the source; their conditions may differ.

Experiments:
[1] = tested on: PC3 cells; test: Internalization & Efflux Assay in PC3 cells; type: cell-based, human; settings: for Internalisation (40 minutes): 40 min at 37° C., Lu-177 complexes (125I-BBN as comparator); for Efflux (2 h): percent efflux 2 h after loading 40 min at 37° C., Lu-177 complexes
Description: • These studies were conducted in a 96-well plate. […] Incubations were stopped by the addition of 200 μl of ice-cold binding buffer. Plates were washed twice with binding buffer. To remove surface-bound radioligand, the cells were incubated with 0.2M acetic acid (in saline), pH 2.8 for 2 min. Plates were centrifuged and the acid wash media were collected to determine the amount of radioactivity which was not internalized. The cells were collected to determine the amount of internalized ^125I-BBN, and all samples were analyzed in the gamma counter. Data for the internalization assay was normalized by comparing counts obtained at the various time points with the counts obtained at the final time point (T40 min). • For the efflux studies, after loading the PC3 cells with ^125I-BBN or radiolabeled compounds of the invention for 40 min at 37° C., the unbound material was filtered, and the % of internalization was determined as above. The cells were then resuspended in binding buffer at 37° C. for up to 3 h.

[2] = tested on: PC3 tumor-bearing nude mice; type: in vivo, mouse; settings: in words; for uptake in the tumor compared with control: 1 and 24 h
Description: • Low dose pharmacokinetic studies (e.g., biodistribution studies) were performed using the below-identified compounds of the invention in xenografted, PC3 tumor-bearing nude mice ([Ncr]-Foxn1). In all studies, mice were administered 100 μL of ^177Lu-labeled test compound at 200 μCi/kg, i.v., with a residence time of 1 and 24 h per group (n=3-4). Tissues were analyzed in an LKB 1282 CompuGamma counter with appropriate standards.

[3] = tested on: PC3 tumor-bearing nude mouse model; test: Radiotherapy Short Term Efficacy Study; type: in vivo
Description: • Radiotherapy studies were performed using the PC3 tumor-bearing nude mouse model. […] (n=12 for each treatment group for up to 30 days, and n=36 for the pooled untreated control group for up to 31 days). […] The subjects were housed in a barrier environment for the duration of the study. Body weight and tumor size (by caliper measurement) were collected on each subject 3 times per week for the duration of the study. Criteria for early termination included: death; loss of total body weight (TBW) equal to or greater than 20%; tumor size equal to or greater than 2 cm^3.

[4] = biological target: T1, NMB-R (Rattus norvegicus, UniProt P24053); test: Competition with 125I-NMB for NMB-R in C6 cells (Example LX); type: binding, rodent; settings: for receptor subtype preference (GRP-R / NMB-R): in words, from IC50 with 125I-NMB (C6) and 125I-BBN (PC3), cut off 10× the IC50 of [Tyr4]-BBN
T1 construct: C6, an NMB-R expressing rodent glioblastoma cell line; host or cells: C6 glioma cells, intact and plated
T1 sequence (P24053 1-390): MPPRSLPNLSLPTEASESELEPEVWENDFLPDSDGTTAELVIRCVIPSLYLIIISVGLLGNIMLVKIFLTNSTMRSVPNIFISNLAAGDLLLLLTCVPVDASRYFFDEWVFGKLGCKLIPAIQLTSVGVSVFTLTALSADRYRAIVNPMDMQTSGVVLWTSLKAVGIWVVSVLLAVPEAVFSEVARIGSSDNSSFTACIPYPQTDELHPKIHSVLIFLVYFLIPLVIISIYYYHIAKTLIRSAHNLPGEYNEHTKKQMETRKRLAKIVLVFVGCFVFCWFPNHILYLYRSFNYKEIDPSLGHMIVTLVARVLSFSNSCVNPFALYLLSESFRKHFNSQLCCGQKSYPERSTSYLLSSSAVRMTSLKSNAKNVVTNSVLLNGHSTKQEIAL
Description: Two cell lines, C6, an NMB-R expressing rodent glioblastoma cell line and PC3, a GRP-R expressing human prostate cancer cell line, were used in this assay. The affinity of various unlabeled compounds for each receptor subtype (NMB-R and GRP-R) was determined indirectly by measuring its ability to compete with the binding of ^125I-NMB or ^125I-BBN to its corresponding receptors in C6 and PC3 cells.
Cells for the assays were plated at a concentration of 9.6×10^4/well in 48 well poly-lysine coated plates (Beckton Dickinson Biocoat).
• Custom made ^125I-[Tyr^0]NMB, >2.0 Ci/μmole (Amersham Life Science) [^125I-NMB] and commercially available ^125I-[Tyr^4]BBN, >2.0 Ci/μmole (Perkin Elmer Life Science) [^125I-BBN] were used as radioligands.
• Using a 48-well plate assay system (for C6 study) competition experiments were performed using ^125I-NMB. […] Selection of compounds for the assay was based on linker subtype.
The binding parameters obtained from the studies were analyzed using a one-site competition non-linear regression analysis with GraphPad Prism. The relative affinity of various compounds for NMB-R in C6 cells were compared with those obtained using commercially available [Tyr^4]-BBN and [Tyr^0]-NMB. To distinguish the GRP-R preferring compounds from NMB-R plus GRP-R preferring compounds, IC50 values obtained for each compound was compared with those obtained from [Tyr^0]-BBN with ^125I-NMB on C6 cells.

[5] = tested on: PC3 tumor-bearing nude mouse model; test: Radiotherapy Long Term Efficacy Study; type: in vivo; settings: 177Lu labeled, 30 mCi/kg, up to 120 days; vs same controls; FIG. 15B
[6] = biological target: T2, GRP-R (Homo sapiens, UniProt P30550); test: Competition assay of modified BBN analogs with 125I-BBN for GRP-R in PC3 cells (Example LXI); type: binding; settings: in words
T2 construct: host or cells: PC3 human prostate cancer cells, intact and plated
Description: • PC3 cell lines were obtained from ATCC(CRL-1435) and cultured in RPMI 1640 (ATCC) supplemented with 2 mM L-glutamine, 1.5 g/L Sodium bicarbonate, 10 mM HEPES and 10% FBS. […] PC3 cells for the assays were plated at a concentration of 2.0×10^4 cells/well in a 96-well white/clear bottom plates (Falcon Optilux-I). Plates were used for the assays on day 2 of the post-plating.
• RPMI 1640 (ATCC) containing 25 mM HEPES, 0.2% BSA fraction V, 1.0 mM AEBSF (CAS #3087-99-7) and 0.1% Bacitracin (CAS #1405-87-4), pH 7.4.
• ^125I-BBN (Cat # NEX258) was obtained from PerkinElmer Life Sciences.
• All compounds tested were dissolved in binding buffer and appropriate dilutions were also done in binding buffer. PC3 cells for assay were seeded at a concentration of 2.0×10^4/well either in 96-well black/clear collagen I cellware plates (Beckton Dickinson Biocoat). Plates were used for binding studies on day 2 post-plating. The plates were checked for confluency (>90% confluent) prior to assay. […] The studies were conducted with an assay volume of 75 μl per well. Triplicate wells were used for each data point. After the addition of the appropriate solutions, plates were incubated for 1 hour at 4° C. Incubation was ended by the addition of 200 uL of ice-cold incubation buffer. Plates were washed 5 times and blotted dry. Radioactivity was detected using either a LKB CompuGamma counter or a microplate scintillation counter.

[7] = 177Lu labeled, 30 mCi/kg, up to 30 days, vs untreated and vs DO3A-monoamide-Aoc-QWAVGHLM-NH2 control, FIG. 15A
[8] = Table 10, class cut off 10x the IC50 of [Tyr4]-BBN with 125I-NMB on C6 cells, yes or dash

T2 sequence (P30550 whole entry): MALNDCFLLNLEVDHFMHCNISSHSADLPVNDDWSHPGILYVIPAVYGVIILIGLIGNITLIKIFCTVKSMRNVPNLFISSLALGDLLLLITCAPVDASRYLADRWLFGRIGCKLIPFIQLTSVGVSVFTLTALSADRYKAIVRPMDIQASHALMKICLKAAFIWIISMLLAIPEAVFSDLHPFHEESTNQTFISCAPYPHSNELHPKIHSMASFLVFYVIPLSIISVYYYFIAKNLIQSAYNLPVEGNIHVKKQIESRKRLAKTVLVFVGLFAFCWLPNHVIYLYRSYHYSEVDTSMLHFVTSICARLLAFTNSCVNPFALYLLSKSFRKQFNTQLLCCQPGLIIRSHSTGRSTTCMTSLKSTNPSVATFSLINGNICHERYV

## CSCC[C@H](NC(=O)[C@H](CC(C)C)NC(=O)[C@H](Cc1c[nH]cn1)NC(=O)CNC(=O)[C@@H](NC(=O)[C@H](C)NC(=O)[C@H](Cc1c[nH]c2ccccc12)NC(=O)[C@H](CCC(N)=O)NC(=O)CC[C@@H](C)[C@H]1CC[C@H]2[C@@H]3CC[C@@H]4C[C@@H](NC(=O)CNC(=O)CN5CCN(CC(=O)O)CCN(CC(=O)O)CCN(CC(=O)O)CC5)CC[C@]4(C)[C@H]3C[C@H](O)[C@]12C)C(C)C)C(N)=O [Compound L63, N-[(3β,5β,12α)-3-[[[[[4,7,10-Tris(carboxymethyl)-1,4,7,10-tetraazacyclododec-1-yl]acetyl]amino]acetyl]amino]-12-hydroxy-24-oxocholan-24-yl]-L-glutaminyl-L-tryptophyl-L-alanyl-L-valyl-glycyl-L-histidyl-L-leucyl-L-methioninamide]
[1]
  Internalisation (40 minutes): 64%
  Efflux (2 h): 0%
[2]
  uptake in the mouse pancreas compared with control: much higher
  uptake in the tumor compared with control: high tumour uptake
[2]; vs DO3A-monoamide-Aoc-QWAVGHLM-NH2
  distribution of radioactivity in the blood, liver and kidneys compared with control: increased blood and liver values at early times
[3]; [7]
  survival: increased survival
[4]; [8]
  GRP-R & NMB-R (binds both with similar affinity): yes
[4]
  receptor subtype preference (GRP-R / NMB-R): dual affinity for both GRP-R and NMB-R

## CSCC[C@H](NC(=O)[C@H](CC(C)C)NC(=O)[C@H](Cc1c[nH]cn1)NC(=O)CNC(=O)[C@@H](NC(=O)[C@H](C)NC(=O)[C@H](Cc1c[nH]c2ccccc12)NC(=O)[C@H](CCC(N)=O)NC(=O)CC[C@@H](C)[C@H]1CC[C@H]2[C@@H]3[C@H](O)C[C@@H]4C[C@@H](NC(=O)CNC(=O)CN5CCN(CC(=O)O)CCN(CC(=O)O)CCN(CC(=O)O)CC5)CC[C@]4(C)[C@H]3C[C@H](O)[C@]12C)C(C)C)C(N)=O [Compound L64, N-[(3β,5β,7α,12α)-3-[[[[[4,7,10-Tris(carboxymethyl)-1,4,7,10-tetraazacyclododec-1-yl]acetyl]amino]acetyl]amino]-7,12-dihydroxy-24-oxocholan-24-yl]-L-glutaminyl-L-tryptophyl-L-alanyl-L-valyl-glycyl-L-histidyl-L-leucyl-L-methioninamide]
[1]
  Internalisation (40 minutes): 69%
  Efflux (2 h): 20%
[2]
  uptake in the mouse pancreas compared with control: much higher
  uptake in the tumor compared with control: much higher
[3]; [7]
  survival: increased survival
[5]
  survival: significantly increased survival
[4]; [8]
  GRP-R & NMB-R (binds both with similar affinity): yes
[4]
  receptor subtype preference (GRP-R / NMB-R): dual affinity for both GRP-R and NMB-R

## DO3A-Gly-Abz-4-Gln-Trp-Ala-Val-Gly-His-Phe-Leu-NH2 [Compound L300]
[6]
  competition / activity at GRP-R: high activity at the GRP-R

## DO3A-monoamide-8-amino-octanoic acid-BBN (7-14) [reference compound]
[1]
  Internalisation (40 minutes): 89%
  Efflux (2 h): 28%

## DO3A-monoamide-N-4-aminoethyl-N-1-piperazineacetic acid-BBN(7-14) [Compound L89]
[4]; [8]
  GRP-R (preferentially binds GRP-R): yes
[4]
  receptor subtype preference (GRP-R / NMB-R): GRP-R selectivity

## N,N-dimethylglycine-Ser-Cys(Acm)-Gly-Asp-8-amino-3,6-dioxaoctanoic acid-BBN(7-14) [Compound L3]
[4]; [8]
  GRP-R & NMB-R (binds both with similar affinity): yes

## N,N-dimethylglycine-Ser-Cys(Acm)-Gly-N-1-piperazineacetic acid-8-amino-3,6-dioxaoctanoic acid-BBN(7-14) [Compound L36]
[4]; [8]
  GRP-R & NMB-R (binds both with similar affinity): yes

## N,N-dimethylglycine-Ser-Cys(Acm)-Gly-N-4-aminoethyl-N-1-piperazineacetic acid-Ser-BBN(7-14) [Compound L28]
[4]; [8]
  GRP-R & NMB-R (binds both with similar affinity): yes

## N-[4-[[[[4,7,10-Tris(carboxymethyl)-1,4,7,10tetraazacyclododec-1-yl]acetyl]glycyl]amino]3-chlorobenzoyl]L-glutaminyl-L-tryptophyl-1-alanyl-L-valyl-glycyl-L-histidyl-L-leucyl-L-methioninamide [Compound L241]
[4]; [8]
  GRP-R & NMB-R (binds both with similar affinity): yes

## N-[4-[[[[4,7,10-Tris(carboxymethyl)-1,4,7,10tetraazacyclododec-1-yl]acetyl]glycyl]amino]-3-methoxybenzoyl]-L-glutaminyl-L-tryptophyl-1-alanyl-L-valyl-glycyl-L-histidyl-L-leucyl-L-methioninamide [Compound L240]
[4]
  receptor subtype preference (GRP-R / NMB-R): selective affinity to GRP-R

## N-[4-[[[[[4,7,10-Tris(carboxymethyl)-1,4,7,10-tetraazacyclododec-1-yl]acetyl]amino]acetyl]amino]benzoyl]-L-glutaminyl-L-tryptophyl-L-alanyl-L-valyl-glycyl-L-histidyl-L-leucyl-L-methioninamide [Compound L70]
[1]
  Internalisation (40 minutes): 70%
  Efflux (2 h): 12%
[3]; mouse, in vivo
  survival: increased survival
[5]
  survival: significantly increased survival
[4]; [8]
  GRP-R & NMB-R (binds both with similar affinity): yes
[4]
  receptor subtype preference (GRP-R / NMB-R): dual affinity

## N-[(3β,5β,12α)-3-[[[4,7,10-Tris(carboxymethyl)-1,4,7,10-tetraazacyclododec-1-yl]acetyl]amino]-4-aminobenzoyl-glycyl-L-glutaminyl-L-tryptophyl-L-alanyl-L-valyl-glycyl-L-histidyl-L-leucyl-L-methioninamide [Compound L204]
[4]; Table 10
  Receptor preference in words (cell spanning the GRP-R and GRP-R & NMB-R columns): preference to NMB-R
[4]; [8]
  GRP-R & NMB-R (binds both with similar affinity): yes
[4]
  receptor subtype preference (GRP-R / NMB-R): selective affinity to NMB-R; also recorded: favor the NMB subtype

## N-[(3β,5β,12α)-3-[[[4,7,10-Tris(carboxymethyl)-1,4,7,10-tetraazacyclododec-1-yl]acetyl]amino]-glycyl-4-aminobenzoyl-L-glutaminyl-L-tryptophyl-L-alanyl-L-valyl-glycyl-L-histidyl-L-phenylalanyl-L-methioninamide [Compound L228]
[6]
  competition / activity at GRP-R: maintains GRP-R activity

## N-[(3β,5β,12α)-3-[[[4,7,10-Tris(carboxymethyl)-1,4,7,10-tetraazacyclododec-1-yl]acetyl]amino]-glycyl-4-aminobenzoyl-L-glutaminyl-L-tryptophyl-L-alanyl-glycyl-L-histidyl-L-phenylalanyl-L-leucinamide [Compound L224]
[6]
  competition / activity at GRP-R: complete loss of binding

## N-[(3β,5β,12α)-3-[[[4,7,10-Tris(carboxymethyl)-1,4,7,10-tetraazacyclododec-1-yl]acetyl]amino]-glycyl-4-aminobenzoyl-L-leucyl-L-tryptophyl-L-alanyl-L-valinyl-glycyl-L-serinyl-L-phenylalanyl-L-methioninamide [Compound L225]
[6]
  competition / activity at GRP-R: reduces competition at the GRP-R

## N-[(3β,5β,12α)-3-[[[[[4,7,10-Tris(carboxymethyl)-1,4,7,10-tetraazacyclododec-1-yl]acetyl]amino]acetyl]amino]-4-hydrazinobenzoyl-L-glutaminyl-L-tryptophyl-L-alanyl-L-valyl-glycyl-L-histidyl-L-leucyl-L-methioninamide [Compound L202]
[4]; [8]
  GRP-R & NMB-R (binds both with similar affinity): yes

## N-[(3β,5β,12α)-3-[[[[[4,7,10-Tris(carboxymethyl)-1,4,7,10-tetraazacyclododec-1-yl]acetyl]amino]acetyl]amino]-[4′-Amino-2′-methyl biphenyl-4-carboxyl]-L-glutaminyl-L-tryptophyl-L-alanyl-L-valyl-glycyl-L-histidyl-L-leucyl-L-methioninamide [Compound L206]
[4]; [8]
  GRP-R & NMB-R (binds both with similar affinity): yes

## N-[[4,7,10-Tris(carboxymethyl)-1,4,7,10-tetraazacyclododec-1-yl]acetyl]glycyl-4-piperidinecarbonyl-L-glutaminyl-L-tryptophyl-L-alanyl-L-valyl-glycyl-L-histidyl-L-leucyl-L-methioninamide [Compound L74]
[4]; [8]
  GRP-R & NMB-R (binds both with similar affinity): yes
